In this assay the test system is leukocytes in BAL fluid. Description: Ovalbumin-induced lung inflammation model of asthma, cell counts in BAL fluid. In kind it is in vivo, Brown Norway rats. The note with it: 0.3 mg/kg daily by oral gavage day 8 to 21; p<0.01. An excerpt:
Bars represent mean cell counts, shown on the Y axis in units of 10^6 cells, for groups of […] with whiskers representing SEM; * p<0.01 versus ‘sensitised’ using Student's unpaired t-test assuming equal variance, with two tails). The horizontal line represents the average number of leukocytes present in BAL fluid from the lungs of unchallenged rats. All rats in the remaining three groups received the same sensitisation and challenge regimen, but were either treated with vehicle only (‘Sensitised’), or with compound (I′) at 0.3 mg/kg bodyweight or with monteleukast (‘Singulair™’) at 30 mg/kg bodyweight, all administered daily by oral gavage.
Adult Brown Norway rats (200-300 g body weight; n=10 per group) were sensitised by a single intraperitoneal injection of 0.1 mg Ovalbumin on day 0. Each rat then received an intratracheal challenge with a solution of 1% ovalbumin (w/v) on day 8, and with 2% ovalbumin (w/v) on days 15, 18 and 21. The animals were then sacrificed 3 hours after the final challenge on day 21. […]
On sacrifice, total lung leukocyate recruitment was assessed by performing a broncheoalveolar lavage (BAL) using 4 lots of 3 ml sterile phosphate-buffered saline introduced through a tracheal cannula. For each animal, the BAL washes were combined, and the total cell population counted (using a haemocytometer). […]

This note sets out measurements from patent US20150141460A1, “Anti-inflammatory Compositions” (Cambridge Enterprise Limited, priority 2007, published 2015).

Each structure is given as a SMILES string.

As for `CC(C)(C)C(=O)N[C@H]1CCCNC1=O` [Compound (I′), (S)-3-(2′,2′-dimethylpropanoylamino)-tetrahydropyridin-2-one], the “reduction of the number of leukocytes in the BAL washes” value turned out to be 70%.
